Measurements from patent publication US5686461A, “Indole derivatives” (Glaxo Wellcome S.p.A., priority 1993, dated 1997).
Where a name gives a salt, the structure may show the parent alone. Read-outs that look alike come from different tables or passages of the source.

What was measured:
[1] = system: NMDA induced convulsions; assay: inhibition of NMDA induced convulsions in the mouse (procedure of Chiamulera C et al.); assay type: in vivo
Description: In this test the ability of the compound to inhibit the generalized seizures induced by an intracerebroventricular injection of NMDA in mice was examined at a number of dose levels. […] This expressed as mg/kg is referred to as the ED50 value.

[2] = target: T1, strychnine insensitive glycine binding site located on the NMDA receptor complex (Rattus norvegicus, UniProt P35439); assay: biochemical
T1 construct: from tissue

[3] = mouse, intravenous, NMDA given intracerebroventricularly, read-out: ED50 (dose required to protect 50% of the animals from the convulsive action of NMDA), iv
[4] = mouse, oral, NMDA given intracerebroventricularly, read-out: ED50 (dose required to protect 50% of the animals from the convulsive action of NMDA), po

SMILES	Ki [2] [nM]	further results
O=C(/C=C/c1c(C(=O)[O-])[nH]c2cc(Cl)cc(Cl)c12)NC12CC3CC(CC(C3)C1)C2.[Na+]	–	ED50 ([1]; Mus musculus, iv, read-out: ED50 (dose required to protect 50% of the animals from the convulsive action of NMDA), iv): 0.02 mg/kg; ED50 ([1]; Mus musculus, po, read-out: ED50 (dose required to protect 50% of the animals from the convulsive action of NMDA), po): 5.47 mg/kg
O=C(/C=C/c1c(C(=O)O)[nH]c2cc(Cl)cc(Cl)c12)N[C@@H]1C[C@H]2CC[C@@H]1C2 (relative stereo) [Example 10b, (E)-3-(2'-exo-2-norbornylcarbamoyl)ethenyl)-4,6-dichloroindole-2-carboxylicacid sodium salt]	20	ED50 [1, 3]: 0.01 mg/kg; ED50 [1, 4]: 11.1 mg/kg
O=C(/C=C/c1c(C(=O)O)[nH]c2cc(Cl)cc(Cl)c12)N[C@H]1C[C@H]2CC[C@@H]1C2 (relative stereo) [Example 11, (E) 3-[2-endo-2-norbornylcarbamoyl)ethenyl]4,6-dichloroindole-2-carboxylic acid sodium salt]	10	–
O=C(/C=C/c1c(C(=O)O)[nH]c2cc(Cl)cc(Cl)c12)NC12CC3CC(CC1C3)C2 [Example 14, (E) 3-[2'-(noradamantyl-3"-aminocarbonyl)ethenyl]-4,6-dichloroindole-2-carboxylic acid sodium salt]	26.3	ED50 [1, 3]: 0.05 mg/kg; ED50 [1, 4]: 6 mg/kg
CC1(C)[C@@H]2CC[C@@]1(C)[C@@H](NC(=O)/C=C/c1c(C(=O)O)[nH]c3cc(Cl)cc(Cl)c13)C2 [Example 16, (E) 3-[2'-(1"-R-bornyl-2"-aminocarbonyl)ethenyl]-4,6-dichloroindole-2 carboxylic acid sodium salt]	39.8	–
O=C(/C=C/c1c(C(=O)O)[nH]c2cc(Cl)cc(Cl)c12)NC1C2CC3CC(C2)CC1C3 (stereo not drawn) [Example 17, (E) 3-[2'-(2"-adamantylaminocarbonyl)ethenyl]-4,6-dichloroindole-2-carboxylic acid sodium salt]	25.1	–
O=C(/C=C/c1c(C(=O)[O-])[nH]c2cc(Cl)cc(Cl)c12)NC12CC3CC(CC(C3)C1)C2.[Na+] [sodium salt]	63.1	–
